The text below walks through data of ChEMBL document CHEMBL1144089, “New geodiamolides from the sponge Cymbastela sp. collected in Papua New Guinea” (J Nat Prod, 1999).

Test [1] has as its system HEY. The test can be described thus: Cytotoxicity against human HEY cells. The test is classed as functional, cell-based.
The nature of test [2]: Cytotoxicity against human U373 cells. It counts as functional, cell-based, U-373MG ATCC. Conditions: U373 MG.

Values after ≈ are worked out from the molar mass of the structure shown.

In the case of `C/C1=C\[C@H](C)C[C@H](C)OC(=O)[C@H](C)NC(=O)[C@@H](Cc2ccc(O)c(I)c2)N(C)C(=O)[C@H](C)NC(=O)[C@@H](C)C1` [GEODIAMOLIDE A], the IC50 (in general, the point on the concentration scale where inhibition reaches its midpoint) in test [1] (read-out: IC50) came to 43 µg/mL (≈ 67 µM); in test [2] (read-out: IC50), 16 µg/mL (≈ 24.9 µM).
For the molecule `C=C1C[C@H](C)C(=O)N[C@@H](C)C(=O)N(C)[C@H](Cc2ccc(O)c(I)c2)C(=O)N[C@@H](C)C(=O)O[C@@H](C)C[C@@H](C)C1=O` [GEODIAMOLIDE G], the IC50 was 8.6 µg/mL (≈ 13.1 µM) in test [1] and 7.7 µg/mL (≈ 11.7 µM) in test [2].
